Experimental data taken from US20200239937A1, “BIOMARKERS FOR DIAGNOSING CONDITIONS” (The Council of the Queensland Institute of Medical Research, priority 2017, published 2020).
Residues, ends and D or L forms follow the SMILES beside them. *: point of attachment. Cbz = O=C(OCc1ccccc1)*

Key:
G9a [1] = assay: Ubiquitination assay (His-ubiquitin pull-down, G9a immunoblot); format: cell-based; conditions: MCF7 cells, DMOG 1 mM
Method: The ubiquitination assay was performed as described previously (Lee, Mol. Cell, 2012). Briefly, cells were transfected with expression constructs including His-tagged ubiquitin and treated with 5 μg/ml of MG132 for 4 hrs, lysed in buffer A (6 M guanidinium-HCl, 100 mM sodium phosphate, 10 mM Tris-HCl (pH 8.0), 5 mM imidazole, and 10 mM β-mercaptoethanol), and incubated with Ni^2+-NTA beads (QIAGEN) for 4 hrs at room temperature. The beads were then washed sequentially with buffer A, buffer B (8 M urea, 100 mM sodium phosphate buffer, 10 mM Tris-HCl (pH 8.0), and 10 mM β-mercaptoethanol), and buffer C (8 M urea, 100 mM sodium phosphate buffer, 10 mM Tris-HCl (pH 6.3), and 10 mM β-mercaptoethanol). Bound proteins were eluted with buffer D (200 mM imidazole, 150 mM Tris-HCl (pH 6.7), 30% glycerol, 0.72 M β-mercaptoethanol, and 5% SDS), and subject to immunoblot analysis.

G9a [2] = assay: G9a immunoblotting of nuclear extracts; format: cell-based
G9a and pVHL = assay: Co-immunoprecipitation of G9a and pVHL; format: cell-based; conditions: MCF7 cells, immunoprecipitated with anti-HA
breast cancer cell lines = assay: Cell survival (MTT) in breast cancer cell lines; format: cell-based; conditions: UNC0642 at 5 μM
Method: (§1) For proliferation studies, cells (5×10^3) were seeded in 96-place wells and allowed to attach overnight, and then incubated in fresh growth medium in the presence of either the G9a inhibitor UNC0642 (Sigma Aldrich) or the vehicle control DMSO (Sigma Aldrich). Proliferation was evaluated via real-time imaging using IncuCyte Zoom (Essen BioScience) or by performing SRB assays at the end of the treatment. For SRB assays, medium was aspirated and cells were fixed in methylated spirits before being washed with water and stained with SRB (Sigma Aldrich) solution (0.4% in 1% acetic acid). The intensity of the staining was obtained using an optical plate reader at 564 nm. Cell viability was determined using a 3-(4,5-dimethylthiazol-2-yl)-2,5-diphenyltetrazolium bromide ([…]) assay. Cells (3×10^3/well) were seeded directly into 96-well plates and allowed to adhere overnight. 96 hours after drug treatment, 20 μL of MU (5 mg/mL; Sigma-Aldrich) was added. The plates were incubated at 37° C. for 3 hrs before the supernatants were removed, and 100 μL of isopropanol was added to each well. The absorbance value (optical density) of each well was measured at 570 nm.

MDA231 = assay: SRB assay, MDA231; format: cell-based; conditions: MDA231, 48 hour treatment, normoxic and hypoxic conditions
Method: as §1

H3K9me2 = assay: Immunoblotting of global H3K9me2; format: cell-based; conditions: MCF7 nuclear extracts, 6 hrs
[3] = tested on: AT3 syngeneic mammary tumor; assay: AT3 syngeneic mammary tumor growth in vivo; design: species or system C57BL/6 mice; conditions: 5 mg/kg intraperitoneally every two days
Method: C57BL/6 mice were purchased from the ARC Animal Resources Center. Groups of 8 to 10 mice per experiment were used for experimental tumor assays to ensure adequate power to detect biologic differences. All experiments were approved by the QIMR Berghofer Medical Research Institute Animal Ethics Committee. A total of 1×10^6 AT3 tumor cells were subcutaneously injected into mice in a 100 μL volume (on day 0) and UNC0642 administered every two days between days 16 and day 36. Tumor growth was measured using a digital calliper, and tumor volumes are presented as mean±SEM.

[4] = tested on: Bre80 and MCF10A breast epithelial cells; assay: Cell survival (MTT) in normal-like breast epithelial cells; format: cell-based; conditions: UNC0642 at 5 μM
Method: as §1

MCF7 and MDA231 cells = assay: Proliferation by IncuCyte Zoom real-time imaging; format: cell-based; conditions: 48 hours
Method: as §1

[5] = tested on: H3K9me2 at promoters of G9a-repressed genes; assay: ChIP of H3K9me2 on promoters of G9a-repressed genes; format: cell-based; conditions: MCF7 cells, 3 μM UNC0642, hypoxia
Method: (§2) Quantitative RT-PCR and ChIP assays were conducted as previously described.

10 G9a-suppressed genes = assay: Real-time qPCR of the 10 G9a-suppressed genes; format: cell-based; conditions: versus control cells
Method: as §2
Briefly, total RNA was isolated using Trizol (Invitrogen) and reverse transcription was performed from 2.5 μg of total RNA using the Superscript III cDNA synthesis kit (Invitrogen). The abundance of mRNA was detected by an ABI VIIA7 system with SYBR Green Master Mix (Life Technologies). Primer pairs were designed to amplify 90-150 bp mRNA specific fragments and were confirmed as unique products by melting curve analysis. The quantity of mRNA was calculated using ΔΔCt method and normalized by using primers to detect HPRT. All reactions were performed in triplicates.

MCF7 = assay: SRB assay, MCF7; format: cell-based; conditions: MCF7, 48 hour treatment, normoxic and hypoxic conditions
Method: as §1

[6] = tested on: breast cancer cell motility (MCF7, MDA231); assay: Scratch wound assay; format: cell-based

Structure (SMILES): COC(=O)CNC(=O)C(=O)OC [DMOG, dimethyloxaloylglycine]
- level of G9a polyubiquitination (G9a [1]): markedly reduced
- G9a protein levels (G9a [2]; MCF7 and MDA231 cells, DMOG 1 mM, DFA 100 μM): increase in G9a protein levels
- interaction between G9a and pVHL (G9a and pVHL): significantly inhibited

Structure (SMILES): CC(C)C[C@@H](C=O)NC(=O)[C@H](CC(C)C)NC(=O)[C@H](CC(C)C)NC(=O)OCc1ccccc1 [MG132] (Cbz-Leu-Leu-Leu-aldehyde)
- G9a protein level (G9a [2]; MCF7 cells, normoxia, 9 hrs, 20 μM MG132): increase in G9a protein level

Structure (SMILES): COc1cc2c(NC3CCN(C(C)C)CC3)nc(N3CCC(F)(F)CC3)nc2cc1OCCCN1CCCC1 [UNC0642]
- survival of cancer cell lines (breast cancer cell lines): significantly attenuated
- cells present after treatment (MDA231): less than 20%
- global H3K9me2 (H3K9me2): significant reduction
- mean tumor volume at end-point versus vehicle treated group [3]: significantly lower
- tumor growth ([3]; days 16 to 36): significantly reduced tumor growth
- cell survival [4]: unaffected
- confluency at the end of the experiment, fold less compared to vehicle control (MCF7 and MDA231 cells; 2-3 μM): 2 to 2.5 fold
- proliferation compared to vehicle control (MCF7 and MDA231 cells; various concentrations): dose-dependent reduction in proliferation
- hypoxia-mediated increase in H3K9me2 in promoters of G9a-repressed genes [5]: almost completely abrogated or significantly reduced
- hypoxia repression of expression of the 10 G9a-suppressed genes (10 G9a-suppressed genes): repression was abolished
- cells present after treatment (MCF7): less than 20%
- wound closure ([6]; hypoxic condition, 72 hours): not able to close the wound even after 72 hours
- cellular migration (denuded area versus vehicle control) ([6]; normoxic condition): inhibit cellular migration
